Experimental data published in ChEMBL document CHEMBL1909046, “DrugMatrix in vitro pharmacology data”.

Assays:
[1] = target: T1, Cytochrome P450 1A2 (Homo sapiens, UniProt P05177); details: bti-tn-5b1-4; further: in other assays of this panel Not Active means under 50% inhibition at 10 µM
T1 sequence (P05177 whole entry): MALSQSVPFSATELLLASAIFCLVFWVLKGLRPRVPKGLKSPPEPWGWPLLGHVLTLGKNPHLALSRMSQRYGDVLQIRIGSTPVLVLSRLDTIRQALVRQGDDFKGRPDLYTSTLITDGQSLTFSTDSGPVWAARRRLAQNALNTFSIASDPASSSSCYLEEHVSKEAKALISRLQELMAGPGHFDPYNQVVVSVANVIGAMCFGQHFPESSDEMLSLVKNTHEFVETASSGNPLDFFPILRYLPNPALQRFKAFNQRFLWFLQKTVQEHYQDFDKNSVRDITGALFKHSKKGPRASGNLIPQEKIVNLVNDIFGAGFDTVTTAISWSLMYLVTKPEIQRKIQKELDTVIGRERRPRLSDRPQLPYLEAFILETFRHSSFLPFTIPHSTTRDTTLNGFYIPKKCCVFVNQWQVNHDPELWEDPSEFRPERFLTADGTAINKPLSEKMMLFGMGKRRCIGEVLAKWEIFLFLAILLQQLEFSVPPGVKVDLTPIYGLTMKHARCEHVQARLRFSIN

[2] = target: Epidermal growth factor receptor (Homo sapiens, UniProt P00533); test: DRUGMATRIX: Protein Tyrosine Kinase, EGF Receptor enzyme inhibition (substrate: Poly(Glu:Tyr)); format: cell-based, Insect cells; details: insect cells; Not Active = under 50% inhibition at 10 µM
[3] = DRUGMATRIX: GABAA, Flunitrazepam, Central radioligand binding (ligand: [3H] Flunitrazepam); format: cell membranes, Rattus norvegicus, Wistar, Brain, Membrane; details: Not Active = under 50% inhibition at 10 µM
[4] = target: T2, B2 bradykinin receptor (Homo sapiens, UniProt P30411); format: cell membranes, Membrane; details: chem-1; further: in other assays of this panel Not Active means under 50% inhibition at 10 µM
T2 sequence (P30411 whole entry): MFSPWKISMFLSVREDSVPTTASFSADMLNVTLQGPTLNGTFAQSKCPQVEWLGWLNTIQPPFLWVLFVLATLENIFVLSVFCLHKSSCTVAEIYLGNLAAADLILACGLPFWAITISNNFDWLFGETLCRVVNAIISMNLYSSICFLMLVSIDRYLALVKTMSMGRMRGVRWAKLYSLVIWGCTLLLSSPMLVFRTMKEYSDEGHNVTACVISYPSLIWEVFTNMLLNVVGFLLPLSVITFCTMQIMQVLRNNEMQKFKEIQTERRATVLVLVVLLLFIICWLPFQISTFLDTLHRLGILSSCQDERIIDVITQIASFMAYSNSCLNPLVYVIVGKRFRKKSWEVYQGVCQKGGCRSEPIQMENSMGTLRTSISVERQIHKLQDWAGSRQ

[5] = target: Mitogen-activated protein kinase 3 (Homo sapiens, UniProt P27361); test: DRUGMATRIX: Protein Serine/Threonine Kinase, ERK1 enzyme inhibition (substrate: Myelin Basic Protein); parameters: species or system Escherichia coli; details: Not Active = under 50% inhibition at 10 µM
[6] = target: 5-hydroxytryptamine receptor 1B (Rattus norvegicus, UniProt P28564); format: cell membranes, Wistar, Cerebral cortex, Membrane; further: in other assays of this panel Not Active means under 50% inhibition at 10 µM
[7] = DRUGMATRIX: Nicotinic Acetylcholine radioligand binding (ligand: [125I] Epibatidine); format: cell membranes, Membrane; details: imr-32; Not Active = under 50% inhibition at 10 µM

Mitogen-activated protein kinase 3, sequence (P27361 whole entry): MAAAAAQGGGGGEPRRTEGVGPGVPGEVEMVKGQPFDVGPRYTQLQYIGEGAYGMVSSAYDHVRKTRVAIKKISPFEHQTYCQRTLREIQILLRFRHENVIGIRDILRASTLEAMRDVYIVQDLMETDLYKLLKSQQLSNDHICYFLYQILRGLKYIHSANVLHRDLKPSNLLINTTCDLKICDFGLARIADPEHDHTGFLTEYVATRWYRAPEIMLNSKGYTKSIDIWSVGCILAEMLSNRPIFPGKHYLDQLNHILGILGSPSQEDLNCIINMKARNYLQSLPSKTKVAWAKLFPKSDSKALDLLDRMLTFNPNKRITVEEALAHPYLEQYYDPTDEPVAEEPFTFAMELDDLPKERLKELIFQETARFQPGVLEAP
5-hydroxytryptamine receptor 1B, sequence (P28564 whole entry): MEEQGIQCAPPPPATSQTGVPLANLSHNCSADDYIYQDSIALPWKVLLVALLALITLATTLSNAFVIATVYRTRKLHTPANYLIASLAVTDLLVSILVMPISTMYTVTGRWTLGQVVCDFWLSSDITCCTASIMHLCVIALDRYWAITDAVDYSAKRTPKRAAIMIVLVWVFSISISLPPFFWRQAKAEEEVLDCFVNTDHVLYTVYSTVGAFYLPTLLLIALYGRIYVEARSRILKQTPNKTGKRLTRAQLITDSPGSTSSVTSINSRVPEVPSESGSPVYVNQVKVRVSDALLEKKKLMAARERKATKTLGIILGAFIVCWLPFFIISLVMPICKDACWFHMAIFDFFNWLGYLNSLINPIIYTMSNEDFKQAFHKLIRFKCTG

C[C@H]1C[C@@H]2[C@H]([C@@H](O)C[C@@]3(C)[C@H]2CC[C@]3(O)C(=O)CO)[C@@]2(C)C=CC(=O)C=C12 [METHYLPREDNISOLONE]
Not Active: IC50 [1] | Ki [1] | IC50 [2] | IC50 [3] | Ki [3] | IC50 [4] | IC50 [5] | IC50 [6] | IC50 [7] | Ki [7]

COc1cc2nc(N3CCN(C(=O)C4CCCO4)CC3)nc(N)c2cc1OC (centres undefined) [TERAZOSIN]
Not Active: IC50 [1] | Ki [1] | IC50 [2] | IC50 [3] | Ki [3] | IC50 [4] | IC50 [5] | IC50 [6] | IC50 [7] | Ki [7]

O=C(O)c1cn(-c2ccc(F)cc2)c2cc(N3CCNCC3)c(F)cc2c1=O [SARAFLOXACIN]
Not Active: IC50 [1] | Ki [1] | IC50 [2] | IC50 [3] | Ki [3] | IC50 [4] | IC50 [5] | IC50 [6] | IC50 [7] | Ki [7]

CO[C@H]1/C=C/O[C@@]2(C)Oc3c(C)c(O)c4c(O)c(c(/C=N/N5CCN(C6CCCC6)CC5)c(O)c4c3C2=O)NC(=O)/C(C)=C\C=C\[C@H](C)[C@H](O)[C@@H](C)[C@@H](O)[C@@H](C)[C@H](OC(C)=O)[C@@H]1C [RIFAPENTINE]
Not Active: IC50 [1] | Ki [1] | IC50 [2] | IC50 [3] | Ki [3] | IC50 [4] | IC50 [5] | IC50 [6] | IC50 [7] | Ki [7]

CCCCOc1cc(CC2CNC(=O)N2)ccc1OC (centres undefined) [RO-201724]
Not Active: IC50 [1] | Ki [1] | IC50 [2] | IC50 [3] | Ki [3] | IC50 [4] | IC50 [5] | IC50 [6] | IC50 [7] | Ki [7]

CC[C@@H](C(=O)[C@@H](C)[C@@H](O)[C@H](C)[C@@H]1O[C@@H]([C@@H](CC)C(=O)O)CC[C@@H]1C)[C@H]1O[C@]2(C=C[C@@H](O)[C@]3(CC[C@@](C)([C@H]4CC[C@](O)(CC)[C@H](C)O4)O3)O2)[C@H](C)C[C@@H]1C [SALINOMYCIN]
Not Active: IC50 [1] | Ki [1] | IC50 [2] | IC50 [3] | Ki [3] | IC50 [4] | IC50 [5] | IC50 [6] | IC50 [7] | Ki [7]

CCN(CC)CCNC(=O)c1cc(S(C)(=O)=O)ccc1OC [TIAPRIDE]
Not Active: IC50 [1] | Ki [1] | IC50 [2] | IC50 [3] | Ki [3] | IC50 [4] | IC50 [5] | IC50 [6] | IC50 [7] | Ki [7]

MANGANESE CHLORIDE ANHYDROUS
Not Active: IC50 [1] | Ki [1] | IC50 [2] | Ki [2] | IC50 [3] | Ki [3] | IC50 [4] | Ki [4] | IC50 [5] | Ki [5] | IC50 [6] | Ki [6] | IC50 [7] | Ki [7]

O.O.O.O.O.O.[Cl-].[Cl-].[Sr+2] [STRONTIUM CHLORIDE HEXAHYDRATE]
Not Active: IC50 [1] | Ki [1] | IC50 [2] | IC50 [3] | Ki [3] | IC50 [4] | IC50 [5] | IC50 [6] | IC50 [7] | Ki [7]

CNC1(c2ccccc2Cl)CCCCC1=O (centres undefined) [KETAMINE]
Not Active: IC50 [1] | Ki [1] | IC50 [2] | IC50 [3] | Ki [3] | IC50 [4] | IC50 [5] | IC50 [6] | IC50 [7] | Ki [7]

Nc1cc(N2CCCCC2)nc(N)[n+]1[O-] [MINOXIDIL]
Not Active: IC50 [1] | Ki [1] | IC50 [2] | IC50 [3] | Ki [3] | IC50 [4] | IC50 [5] | IC50 [6] | IC50 [7] | Ki [7]

CS(=O)(=O)c1ccc([C@@H](O)[C@@H](CO)NC(=O)C(Cl)Cl)cc1 [THIAMPHENICOL]
Not Active: IC50 [1] | Ki [1] | IC50 [2] | IC50 [3] | Ki [3] | IC50 [4] | IC50 [5] | IC50 [6] | IC50 [7] | Ki [7]

Clc1ccccc1CN1CCc2sccc2C1 [TICLOPIDINE]
Not Active: IC50 [1] | Ki [1] | IC50 [2] | IC50 [3] | Ki [3] | IC50 [4] | IC50 [5] | IC50 [6] | IC50 [7] | Ki [7]

CC(C)Oc1ccc2c(=O)c(-c3ccccc3)coc2c1 [IPRIFLAVONE]
Not Active: IC50 [1] | Ki [1] | IC50 [2] | IC50 [3] | Ki [3] | IC50 [4] | IC50 [5] | IC50 [6] | IC50 [7] | Ki [7]

CCN1CCC[C@H]1CNC(=O)c1cc(S(N)(=O)=O)ccc1OC [LEVOSULPIRIDE]
Not Active: IC50 [1] | Ki [1] | IC50 [2] | IC50 [3] | Ki [3] | IC50 [4] | IC50 [5] | IC50 [6] | IC50 [7] | Ki [7]
